# Article PMC11249646, “Small-Molecule Disruptors of the Interaction between Calcium- and Integrin-Binding Protein 1 and Integrin αIIbβ3 as Novel Antiplatelet Agents” (ACS Pharmacology & Translational Science, 2024)
# Read-outs that look alike come from different tables or passages of the source.
# Legend:
# [1] = target: T1, CIB1 and αIIb interaction (CIB1-GST : F-αIIb peptide) (Homo sapiens, UniProt Q99828); assay: FP assay, 1536-well qHTS format (primary and confirmatory screen); type: binding; conditions: for CONFIRMATORY SCREEN Curve Class / Curve Class (confirmatory screen): qHTS curve class
# T1 construct: made in house; host or cells: BL-21 plus RIL cells (E. coli)
# T1 sequence (Q99828 1-191): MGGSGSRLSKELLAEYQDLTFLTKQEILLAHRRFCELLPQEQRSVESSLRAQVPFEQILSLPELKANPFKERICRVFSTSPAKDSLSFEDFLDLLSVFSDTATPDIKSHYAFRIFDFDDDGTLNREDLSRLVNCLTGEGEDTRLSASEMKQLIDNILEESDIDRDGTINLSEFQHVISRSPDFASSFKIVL
# [2] = target: T2, GST-CIB1 : F-scrambled peptide (Homo sapiens, UniProt Q99828); assay: FP scrambled-peptide counter screen, 1536-well format; type: binding; conditions: for COUNTERSCREEN Confirm? / Confirm? (counterscreen): YES/NO call; for COUNTERSCREEN Curve Class / Curve Class (counterscreen): qHTS curve class
# T2 construct: made in house; host or cells: BL-21 plus RIL cells (E. coli)
# T2 sequence (Q99828 1-191): T1 sequence (Q99828 1-191)
# [3] = confirmatory screen, YES/NO call
# [4] = confirmatory screen, negative sign = inhibitory curve
# [5] = confirmatory screen, negative = inhibition
# [6] = qHTS primary screen hits, Table S2, negative = inhibition
# [7] = qHTS primary screen hits, Table S2, read-out: IC50
# [8] = scrambled-peptide counterscreen
# [9] = scrambled-peptide counterscreen, read-out: COUNTERSCREEN IC50
# [10] = confirmatory screen, read-out: IC50 [μM] (confirmatory screen)
# [11] = counterscreen, negative sign = inhibitory curve
# [12] = counterscreen, read-out: IC50 [μM] (counterscreen)
# [13] = qHTS primary screen hits, Table S2, negative sign = inhibitory curve
# [14] = Table S3, confirmatory screen, a negative sign marks inhibitory curves
# [15] = Table S3, confirmatory screen, negative = inhibition
# [16] = qHTS FP screen hits, Table S2, negative = inhibition
# [17] = qHTS FP screen hits, Table S2, read-out: IC50
# [18] = Table S3, counterscreen, a negative sign marks inhibitory curves
# [19] = Table S3, counterscreen, negative = inhibition
# [20] = Table S3, counterscreen, read-out: IC50 [μM] (counterscreen)
# [21] = qHTS primary screen hits, Table S2, negative sign = inhibitory curve, several classes where COUNT > 1
# [22] = qHTS FP screen hits, Table S2, one class per curve where COUNT > 1, negative sign = inhibitory curve
# [23] = Table S3, confirmatory screen, YES/NO call
# [24] = Table S3, confirmatory screen, read-out: IC50 [μM] (confirmatory screen)
# [25] = confirmatory screen, read-out: CONFIRMATORY SCREEN IC50
compound,measurement,setting,value
CN(C)[C@H]1CCN(c2cccc(Nc3nn4c(=O)c5ccccc5nc4s3)c2)C1.O=C(O)C(F)(F)F [NCGC00189222-02],CONFIRMATORY SCREEN Confirm?,[1]; [3],YES
same,CONFIRMATORY SCREEN Curve Class,[1]; [4],-2.4
same,CONFIRMATORY SCREEN Efficacy (%),[1]; [5],-54%
same,Efficacy (%),[1]; [6],-39%
same,IC50,[1]; [7],32.8 µM
same,COUNTERSCREEN Efficacy (%),[2]; [8],-79%
same,COUNTERSCREEN Confirm?,[2]; [8],YES
same,COUNTERSCREEN Curve Class,[2]; [8],-2.2
same,IC50,[2]; [9],56.2 µM
Cc1ccc(CNc2ncnc3ccc(-c4ccc([C@@H](C)O)o4)cc23)o1 [NCGC00189251-01],Efficacy (%) (confirmatory screen),[1]; confirmatory screen,-58%
same,Confirm? (confirmatory screen),"[1]; confirmatory screen, YES/NO",YES
same,Curve Class (confirmatory screen),[1]; [4],-1.2
same,IC50,[1]; [10],28.2 µM
same,Efficacy (%) (counterscreen),[2]; counterscreen,-36%
same,Curve Class (counterscreen),[2]; [11],-2.2
same,IC50,[2]; [12],39.8 µM
O=C(O)C(F)(F)F.O=C1CCCC2=C1C(c1cccnc1Br)N=C(Nc1nc3ccccc3o1)N2 (stereo not shown) [NCGC00189281-01],CONFIRMATORY SCREEN Efficacy (%),[1]; confirmatory screen,-31%
same,CONFIRMATORY SCREEN Curve Class,[1]; confirmatory screen,4
same,Efficacy (%),[1]; [6],-26%
same,Curve Class,[1]; [13],-2.4
same,IC50,[1]; [7],25.1 µM
same,COUNTERSCREEN Efficacy (%),[2]; counterscreen,0%
same,COUNTERSCREEN Curve Class,[2]; counterscreen,4
Cc1ccsc1C1N=C(Nc2nc3ccccc3o2)NC2=C1C(=O)CCC2.O=C(O)C(F)(F)F (stereo not shown) [NCGC00189283-01],Curve Class (confirmatory screen),[1]; [14],4
same,Efficacy (%) (confirmatory screen),[1]; [15],-22%
same,Efficacy (%),[1]; [16],-28%
same,IC50,[1]; [17],7.9 µM
same,Confirm? (counterscreen),"[2]; Table S3, counterscreen",YES
same,Curve Class (counterscreen),[2]; [18],-2.4
same,Efficacy (%) (counterscreen),[2]; [19],-34%
same,IC50,[2]; [20],63.1 µM
COC(=O)c1ccc(O)c2ncc(-c3ccc(C(=O)N4CCNCC4)cc3)cc12.O=C(O)C(F)(F)F [NCGC00189509-01],CONFIRMATORY SCREEN Efficacy (%),[1]; confirmatory screen,-16%
same,CONFIRMATORY SCREEN Curve Class,[1]; confirmatory screen,4
same,Efficacy (%),[1]; [6],-45%
same,Curve Class,[1]; [21],-1.2
same,IC50,[1]; [7],28.2 µM
same,COUNTERSCREEN Efficacy (%),[2]; counterscreen,-25%
same,COUNTERSCREEN Curve Class,[2]; counterscreen,4
COC(=O)c1ccc(O)c2ncc(-c3ccc(C(=O)NCCCN(C)C)cc3)cc12.O=C(O)C(F)(F)F [NCGC00189510-01],Curve Class (confirmatory screen),[1]; [14],4
same,Efficacy (%) (confirmatory screen),[1]; [15],-26%
same,Efficacy (%),[1]; [16],-71%
same,Curve Class,[1]; [22],-2.2
same,IC50,[1]; [17],44.7 µM
same,Curve Class (counterscreen),[2]; [18],3
same,Efficacy (%) (counterscreen),[2]; [19],226%
same,IC50,[2]; [20],89.1 µM
O=C(O)C(F)(F)F.O=C1Nc2ccccc2/C1=N/NC(=S)Nc1ccc(Oc2ccccc2)cc1 [NCGC00229524-01],Confirm? (confirmatory screen),[1]; [23],YES
same,Curve Class (confirmatory screen),[1]; [14],-1.4
same,Efficacy (%) (confirmatory screen),[1]; [15],-29%
same,IC50,[1]; [24],12.6 µM
same,Efficacy (%),[1]; [6],-25%
same,Curve Class,[1]; [13],-1.4
same,IC50,[1]; [7],2.8 µM
same,Curve Class (counterscreen),[2]; [18],-1.4
same,Efficacy (%) (counterscreen),[2]; [19],-38%
same,IC50,[2]; [20],4 µM
O=C(O)C(F)(F)F.O=C1Nc2ccccc2/C1=N/NC(=S)Nc1ccc(O)cc1 [NCGC00229525-01],Confirm? (confirmatory screen),[1]; [23],YES
same,Curve Class (confirmatory screen),[1]; [14],-1.4
same,Efficacy (%) (confirmatory screen),[1]; [15],-32%
same,IC50,[1]; [24],11.2 µM
same,Efficacy (%),[1]; [16],-42%
same,Curve Class,[1]; [22],-1.2
same,IC50,[1]; [17],8.9 µM
same,Curve Class (counterscreen),[2]; [18],-1.2
same,Efficacy (%) (counterscreen),[2]; [19],-61%
same,IC50,[2]; [20],6.3 µM
CN(C)c1ccc(NC(=S)N/N=C2\C(=O)Nc3ccccc32)cc1.O=C(O)C(F)(F)F [NCGC00229526-01],Efficacy (%) (confirmatory screen),[1]; confirmatory screen,-73%
same,Confirm? (confirmatory screen),"[1]; confirmatory screen, YES/NO",YES
same,Curve Class (confirmatory screen),[1]; [4],-1.4
same,IC50,[1]; [10],10 µM
same,Efficacy (%),[1]; [6],-38%
same,Curve Class,[1]; [21],-1.2
same,IC50,[1]; [7],3.5 µM
same,Efficacy (%) (counterscreen),[2]; counterscreen,-44%
same,Curve Class (counterscreen),[2]; [11],-1.2
same,IC50,[2]; [12],22.4 µM
CNC(=S)N/N=C1\C(=O)Nc2ccccc21.O=C(O)C(F)(F)F [NCGC00229528-01],CONFIRMATORY SCREEN Confirm?,[1]; [3],YES
same,CONFIRMATORY SCREEN Curve Class,[1]; [4],-1.4
same,CONFIRMATORY SCREEN Efficacy (%),[1]; [5],-28%
same,IC50,[1]; [25],14.1 µM
same,Efficacy (%),[1]; [6],-26%
same,Curve Class,[1]; [21],-1.4
same,IC50,[1]; [7],7.9 µM
same,COUNTERSCREEN Efficacy (%),[2]; [8],-28%
same,COUNTERSCREEN Confirm?,[2]; [8],YES
same,COUNTERSCREEN Curve Class,[2]; [8],4
O=C(O)C(F)(F)F.O=C1Nc2ccccc2/C1=N/NC(=S)Nc1ccc(C(=O)O)cc1 [NCGC00229530-01],Curve Class (confirmatory screen),[1]; [14],4
same,Efficacy (%) (confirmatory screen),[1]; [15],-47%
same,Efficacy (%),[1]; [16],-32%
same,IC50,[1]; [17],8.9 µM
same,Confirm? (counterscreen),"[2]; Table S3, counterscreen",YES
same,Curve Class (counterscreen),[2]; [18],-1.2
same,Efficacy (%) (counterscreen),[2]; [19],-65%
same,IC50,[2]; [20],12.6 µM
CC(C)NC(=S)N/N=C1\C(=O)Nc2ccccc21.O=C(O)C(F)(F)F [NCGC00229535-01],CONFIRMATORY SCREEN Confirm?,[1]; [3],YES
same,CONFIRMATORY SCREEN Curve Class,[1]; [4],-1.4
same,CONFIRMATORY SCREEN Efficacy (%),[1]; [5],-48%
same,IC50,[1]; [25],2.8 µM
same,Efficacy (%),[1]; [16],-24%
same,IC50,[1]; [17],12.6 µM
same,COUNTERSCREEN Efficacy (%),[2]; [8],-45%
same,COUNTERSCREEN Confirm?,[2]; [8],YES
same,COUNTERSCREEN Curve Class,[2]; [8],-1.2
same,IC50,[2]; [9],11.2 µM
O=C(O)C(F)(F)F.O=C1Nc2ccccc2/C1=N/NC(=S)Nc1c(F)cc(F)cc1F [NCGC00229537-01],CONFIRMATORY SCREEN Efficacy (%),[1]; confirmatory screen,-26%
same,CONFIRMATORY SCREEN Curve Class,[1]; confirmatory screen,4
same,Efficacy (%),[1]; [6],-30%
same,Curve Class,[1]; [21],-1.4
same,IC50,[1]; [7],12.6 µM
same,COUNTERSCREEN Efficacy (%),[2]; counterscreen,-11%
same,COUNTERSCREEN Curve Class,[2]; counterscreen,4
CCCCNC(=S)N/N=C1\C(=O)Nc2ccccc21.O=C(O)C(F)(F)F [NCGC00229539-01],Confirm? (confirmatory screen),[1]; [23],YES
same,Curve Class (confirmatory screen),[1]; [14],-2.4
same,Efficacy (%) (confirmatory screen),[1]; [15],-49%
same,IC50,[1]; [24],50.1 µM
same,Efficacy (%),[1]; [6],-32%
same,Curve Class,[1]; [21],-1.2
same,IC50,[1]; [7],17.8 µM
same,Curve Class (counterscreen),[2]; [18],-1.2
same,Efficacy (%) (counterscreen),[2]; [19],-50%
same,IC50,[2]; [20],11.2 µM
O=C(O)C(F)(F)F.O=C1Nc2ccccc2/C1=N/NC(=S)Nc1ccccc1 [NCGC00229542-01],Efficacy (%) (confirmatory screen),[1]; confirmatory screen,-50%
same,Confirm? (confirmatory screen),"[1]; confirmatory screen, YES/NO",YES
same,Curve Class (confirmatory screen),[1]; [4],-1.4
same,IC50,[1]; [10],3.2 µM
same,Efficacy (%),[1]; [6],-27%
same,Curve Class,[1]; [21],-1.4
same,IC50,[1]; [7],10 µM
same,Efficacy (%) (counterscreen),[2]; counterscreen,-34%
same,Curve Class (counterscreen),[2]; [11],-1.2
same,IC50,[2]; [12],4.5 µM
O=C(O)C(F)(F)F.O=C1Nc2ccccc2/C1=N/NC(=S)NCc1ccccc1 [NCGC00229543-01],Curve Class (confirmatory screen),[1]; [14],4
same,Efficacy (%) (confirmatory screen),[1]; [15],-33%
same,Efficacy (%),[1]; [6],-24%
same,Curve Class,[1]; [21],-1.4
same,IC50,[1]; [7],7.9 µM
same,Curve Class (counterscreen),[2]; [18],4
same,Efficacy (%) (counterscreen),[2]; [19],-27%
O=C(O)C(F)(F)F.O=C(O)c1ccc(-c2ccc3ncnc(N4CCOCC4)c3c2)o1 [NCGC00229619-01],Confirm? (confirmatory screen),[1]; [23],YES
same,Curve Class (confirmatory screen),[1]; [14],-1.4
same,Efficacy (%) (confirmatory screen),[1]; [15],-29%
same,IC50,[1]; [24],10 µM
same,Efficacy (%),[1]; [6],-16%
same,Curve Class,[1]; [21],-1.4
same,IC50,[1]; [7],4 µM
same,Curve Class (counterscreen),[2]; [18],-2.4
same,Efficacy (%) (counterscreen),[2]; [19],-53%
same,IC50,[2]; [20],5.6 µM
CN(CC(=O)Nc1ccc(N2CCOCC2)cc1)Cc1c(O)ccc2ccccc12.O=C(O)C(F)(F)F [NCGC00229682-01],Curve Class (confirmatory screen),[1]; [14],4
same,Efficacy (%) (confirmatory screen),[1]; [15],-47%
same,Efficacy (%),[1]; [6],-68%
same,Curve Class,[1]; [21],-2.2
same,IC50,[1]; [7],39.8 µM
same,Confirm? (counterscreen),"[2]; Table S3, counterscreen",YES
same,Curve Class (counterscreen),[2]; [18],-2.2
same,Efficacy (%) (counterscreen),[2]; [19],-57%
same,IC50,[2]; [20],70.8 µM
